Measurements taken from patent US6358883B1, “Pesticidal and parasiticidal use of 1-aryl-1-(substituted thio, sulfinyl and sulfonyl)-2-nitroethane compounds” (American Cyanamid Company, priority 1998, dated 2002).

Columns and labels:
Type in all cases: in vivo
[1] = test system: Aphis gossypii, cotton aphid (CA); assay: Cotton aphid (CA) cotyledon dip test; design: key: 0 = no effect; 1 = 10-25% kill; 2 = 26-35% kill; 3 = 36-45% kill; 4 = 46-55% kill; 5 = 56-65% kill; 6 = 66-75% kill; 7 = 76-85% kill; 8 = 86-99% kill; 9 = 100% kill; settings: mortality after 5 days
Outline: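 Mortality was scored 5 days after dipping aphid-infested cotyledons, colonised overnight from a transfer leaf, into water dilutions of a 35% acetone/water compound solution.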

[2] = test system: Spodoptera eridania, eggs-southern armyworm (SAW-Eggs); assay: Southern armyworm eggs (SAW-Eggs) treated diet test; design: key: 0 = no effect; 1 = 10-25% kill; 2 = 26-35% kill; 3 = 36-45% kill; 4 = 46-55% kill; 5 = 56-65% kill; 6 = 66-75% kill; 7 = 76-85% kill; 8 = 86-99% kill; 9 = 100% kill; settings: mortality after 7 days
Outline: (§1)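 Eggs of S. eridania or D. undecimpunctata howardi were set on artificial diet pretreated with test solution (10,000 ppm stock in 35% aqueous acetone, water dilutions) and dried. Wells were sealed with vented clear covers, and mortality was scored at day 7.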

[3] = test system: C. elegans (Bristol strain); assay: Evaluation of test compounds against C. elegans (motility, 96-well plate); design: key: 9=complete kill in 4 hours; 8=complete kill in 24 hours; 7=markedly reduced motility in approximately 95% of worms in 24 hours; 0=normal motility, same as controls; settings: motility at 4 and 24 hours
Outline: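 Activity is a semi-quantitative visual score of adult and larval movement, read at 4 h and 24 h post-immersion at 20 °C after gentle tapping. Worms were suspended in Na buffer in wells where compound, dissolved in 80% acetone, had been evaporated.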

[4] = test system: Tetranychus urticae (OP-resistant strain), 2-spotted spider mite (TSM); assay: 2-spotted spider mite (TSM) plant dip test; design: key: 0 = no effect; 1 = 10-25% kill; 2 = 26-35% kill; 3 = 36-45% kill; 4 = 46-55% kill; 5 = 56-65% kill; 6 = 66-75% kill; 7 = 76-85% kill; 8 = 86-99% kill; 9 = 100% kill; settings: mortality after 2 days
Outline: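 Mortality counted 2 days after a 3 s agitated dip of infested Sieva lima bean plants. Compound came from a 10,000 ppm stock in 35% aqueous acetone, with further dilution in water. Each primary leaf carried about 100 OP-resistant mites, allowed to settle ~2 h before dipping.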

[5] = test system: M. incognita (Root Knot Nematode) larvae; assay: Evaluation of test compounds against M. incognita larvae in microtiter plate wells (movement score); settings: larvae scored for movement after 20-24 hours; further: key: A score of '9' indicates inactive worms with a straight, sticklike morphology; A score of '8' indicates inactive worms with a limp, curled or curved morphology; A score of '7' indicates dead/paralyzed worms after 72 hours
Outline: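 Scoring is by larval movement: dead or paralyzed worms count as positive, and a "7" means dead/paralyzed at 72 hours. Freshly hatched root-knot larvae (50-65 per well) in buffered S Medium were incubated with compounds under plate sealers for 20-24 h before the first read.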

[6] = test system: Diabrotica undecimpunctata howardi, eggs-southern corn rootworm (SCR-Eggs); assay: Southern corn rootworm eggs (SCR-Eggs) treated diet test; design: key: 0 = no effect; 1 = 10-25% kill; 2 = 26-35% kill; 3 = 36-45% kill; 4 = 46-55% kill; 5 = 56-65% kill; 6 = 66-75% kill; 7 = 76-85% kill; 8 = 86-99% kill; 9 = 100% kill; settings: mortality after 7 days
Outline: as §1

[7] = test system: Spodoptera eridania, 2nd instar larvae, southern armyworm (SAW); assay: Southern armyworm (SAW) leaf dip test; design: key: 0 = no effect; 1 = 10-25% kill; 2 = 26-35% kill; 3 = 36-45% kill; 4 = 46-55% kill; 5 = 56-65% kill; 6 = 66-75% kill; 7 = 76-85% kill; 8 = 86-99% kill; 9 = 100% kill
Outline: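 Ten 2nd instar caterpillars feed on a Sieva lima bean leaf that was dipped 3 seconds in test solution (stock 10,000 ppm in 35% acetone/water, water-diluted). Five days later, larvae are assessed for death, feeding reduction or abnormal molting.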

[8] = test system: Diabrotica virgifera virgifera Leconte, 2nd instar western corn rootworm (WCR); assay: Western corn rootworm (WCR) soil test; design: key: 0 = no effect; 1 = 10-25% kill; 2 = 26-35% kill; 3 = 36-45% kill; 4 = 46-55% kill; 5 = 56-65% kill; 6 = 66-75% kill; 7 = 76-85% kill; 8 = 86-99% kill; 9 = 100% kill
Outline: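 Ten 2nd-instar rootworm larvae are placed in jars of moist soil with millet seed and talc treated with 1.25 mg active ingredient (roughly 50 kg/ha) from a 35% acetone-in-water solution. After 5 days mortality is scored, counting missing larvae as dead.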

| SMILES | CA (300 ppm) rating [1] | SAW Eggs (300 ppm) rating [2] | Rating Against C. elegans (150 ppm) [3] | TSM (300 ppm) rating [4] | M. incognita (150 ppm) score [5] | SCR Eggs (1000 ppm) rating [6] | SAW (300 ppm) rating [7] | WCR (50 ppm) rating [8] |
| --- | --- | --- | --- | --- | --- | --- | --- | --- |
| CCCOC(=O)CSC(C[N+](=O)[O-])c1c(Cl)cccc1Cl (centres unmarked) [Example 133] | 0 | 0 | 0 | 0 | 0 | 9 (9 = 100% kill) | 0 | 0 |
| CCCCOC(=O)CSC(C[N+](=O)[O-])c1ccc(OC(F)(F)F)cc1 (racemic) [Example 120] | 0 | 0 | 0 | 0 | 9 | 0 | 0 | 0 |
| CCOC(=O)CSC(C[N+](=O)[O-])c1ccc2ccccc2c1 (racemic) [Example 111] | 0 | 8 (8 = 86-99% kill) | 8 | 0 | 0 | 0 | 0 | 0 |
| COC(=O)CSC(C[N+](=O)[O-])c1ccccc1 (centres unmarked) [Example 4] | 5 (5 = 56-65% kill) | 0 | 9 | 0 | 9 | 0 | 0 | 4 (4 = 46-55% kill) |
| O=[N+]([O-])CC(SCc1ccccc1)c1ccc2c(c1)OCO2 (centres unmarked) [Example 23] | 4 (4 = 46-55% kill) | 9 (9 = 100% kill) | 7 | 0 | 8 | 9 (9 = 100% kill) | 8 (8 = 86-99% kill) | 4 (4 = 46-55% kill) |
| O=C(CSC(C[N+](=O)[O-])c1ccc2c(c1)OCO2)OCc1ccccc1 (racemic) [Example 106] | 0 | 0 | 8 | 0 | 0 | 0 | 0 | 0 |
| CCCCC(CC)COC(=O)CSC(C[N+](=O)[O-])c1ccc(OC)cc1 (centres unmarked) [Example 51] | 0 | 9 (9 = 100% kill) | 0 | 0 | 0 | 8 (8 = 86-99% kill) | 0 | 4 (4 = 46-55% kill) |
| CCCOC(=O)CSC(C[N+](=O)[O-])c1ccc2ccccc2c1 (racemic) [Example 112] | 0 | 8 (8 = 86-99% kill) | 9 | 0 | 0 | 0 | 0 | 0 |
| COC(=O)CSC(C[N+](=O)[O-])c1ccc2ccccc2c1 (racemic) [Example 110] | 0 | 0 | 9 | 0 | 0 | 0 | 0 | 0 |
| CCCCC(CC)COC(=O)CSC(C[N+](=O)[O-])c1cccc(OC)c1 (centres unmarked) [Example 59] | 0 | 0 | 0 | 0 | 0 | 0 | 0 | 0 |
| O=C(CSC(C[N+](=O)[O-])c1ccc(OC(F)(F)F)cc1)OCc1ccccc1 (racemic) [Example 121] | 0 | 0 | 9 | 0 | 8 | 0 | 0 | 0 |
| COc1ccc(C(C[N+](=O)[O-])SCC(=O)OCc2ccccc2)cc1 (racemic) [Example 108] | 0 | 9 (9 = 100% kill) | 8 | 0 | 9 | 0 | 0 | 0 |
| COc1cccc(C(C[N+](=O)[O-])SCC(=O)OCc2ccccc2)c1 (racemic) [Example 107] | 0 | 0 | 0 | 0 | 0 | 0 | 0 | 0 |
| O=C(O)CSC(C[N+](=O)[O-])c1c(Cl)cccc1Cl (centres unmarked) [Example 130] | 0 | 0 | 9 | 0 | 9 | 0 | 0 | 3 (3 = 36-45% kill) |
| CCCSC(C[N+](=O)[O-])c1ccc2ccccc2c1 (racemic) [Example 115] | 0 | 8 (8 = 86-99% kill) | 0 | 0 | 0 | 0 | 0 | 0 |
| CCCOC(=O)CSC(C[N+](=O)[O-])c1ccc2c(c1)OCO2 (racemic) [Example 104] | 0 | 0 | 9 | 0 | 8 | 0 | 0 | 0 |
| O=[N+]([O-])CC(SCc1ccccc1)c1ccc(OC(F)(F)F)cc1 (centres unmarked) [Example 124] | 0 | 9 (9 = 100% kill) | 7 | 0 | 0 | 0 | 0 | 0 |
| COC(=O)CSC(C[N+](=O)[O-])c1ccc2c(c1)OCO2 (centres unmarked) [Example 18] | 9 (9 = 100% kill) | 0 | 9 | 0 | 9 | 0 | 0 | 0 |
| CCCSC(C[N+](=O)[O-])c1ccc2c(c1)OCO2 (centres unmarked) [Example 24] | 0 | 0 | 8 | 0 | 9 | 0 | 0 | 0 |
